Measurements taken from patent US20250082656A1, “DOSAGE REGIMENS FOR TREATMENT OF DENGUE INFECTION” (Atea Pharmaceuticals, Inc., priority 2022, published 2025).
Converted amounts (≈) assume the structure as drawn.

Assays:
DENV3 NS5 = DENV3 NS5 (Dengue virus type 3, UniProt Q6YMS4); assay: Nucleotide analogue incorporation / discrimination assay, DENV3 NS5; type: biochemical; details: GTP for AT-9010 and AT-9002, UTP for SOF-TP
Procedure: (§1) The chain-terminating efficiency of Compound 5 was measured in competitive nucleotide incorporation assays using all four DENV serotypes. […] In comparison, sofosbuvir triphosphate is incorporated into the RNA less than 1 time for every 100 UTP (native uridine triphosphate) incorporations.
(§2) Measurements and quantitations were as in FIG. 19B.
(§3) DENV NS5 was pre-incubated with the annealed P10/T20 RNA in an assembly buffer containing 20 mM HEPES pH 7.5, 10% glycerol, 5 mM MgCl2, and 5 mM DTT for 10 min at 30° C. to create an active RNA elongation complex.
(§4) Reactions were started by adding AT-9010 with either all four NTPs or UTP, ATP, and CTP only.
(§5) Single nucleotide incorporation was tested as follows. Reactions were started by adding the corresponding NTP or analogue. Final concentrations were 1 μM NS5, 0.25 μM P10/T20, 100 μM NTP or analogue in a final buffer containing 20 mM HEPES pH 7.5, 15% glycerol, 5 mM MgCl2, and 5 mM DTT.
(§6) Reactions were quenched at the designated time points in 3× volume FBD stop solution (formamide, 10 mM EDTA) and analyzed on 20% acrylamide-bisacrylamide (19:1) […] sequencing gels. RNA products were visualized using a Typhoon FluorImager then analyzed and quantified using ImageQuant software.

DENV4 NS5 [1] = target: T1, DENV4 NS5 (Dengue virus type 4, UniProt P09866); assay: Nucleotide analogue incorporation / discrimination assay, DENV4 NS5; type: biochemical; details: GTP for AT-9010 and AT-9002, UTP for SOF-TP
Procedure: as §1
The nature of regular inserted Watson-Crick nucleotides is indicated in the right of the gel. […] Quantification of band-products greater in size than the G/AT (+5) band relative to the G/AT (+5) band were measured using a Typhoon FluorImager, and allowed to calculate the discrimination value. The incorporation rates for […] and AT9002 are compared to that of GTP, and to that of UTP in the case of SOF-TP.
as §2, §3, §4, §5, §6

DENV2 NS5MTase protein = DENV2 NS5MTase protein (Dengue virus type 2, UniProt P14340); assay: MTase activity filter-binding assay (FBA); type: biochemical; details: 30° C., 30 min, read-out: IC50 against the MTase domain
Procedure: A) Dose-response determination using a filter binding assay (FBA). Reactions were incubated at 30° C. during 30 min and the enzymatic activity was determined using FBA as described in Example 33. […] Interacting residues are labelled and shown as sticks. E) Structural comparison of the position of a GTP (pink) and AT9010 (light brown) bound in the Cap binding site. Cap binding site structures belong to DENV2 (in pink—PDB 2P1D)) and DENV3 (in light brown) MTases and are conserved.
The transfer of tritiated methyl from [3H]-SAM onto RNA substrate was monitored by filter-binding assay (FBA), performed according to the method described previously (Paesen et al., 2015). […] FBA was carried out in reaction mixture [40 mM Tris-HCl (pH 8.0), 1 mM DTT, 2 μM SAM and 0.1 μM 3H-SAM (Perkin Elmer)] in the presence of 0.7 μM mGpppAC4 synthetic RNA and DENV2 NS5MTase protein (500 nM). The enzyme was first mixed with the compound (0.5 to 1000 μM) suspended in water before the addition of RNA substrate and SAM and then incubated at 30° C. Reaction mixtures were stopped after 30 min by their 10-fold dilution in ice-cold water. […] They were soaked with scintillation fluid (Perkin Elmer), and 3H-methyl transfer to the RNA substrates was determined using a Wallac MicroBeta TriLux Liquid Scintillation Counter (Perkin Elmer). […]

[2] = target: human cellular DNA-dependent DNA polymerase γ (Homo sapiens, UniProt P54098); details: previously shown (Good et al.); read-out: estimated IC50; cited from earlier work
DENV4 NS5 [3] = target: T1, DENV4 NS5; assay: Thermal shift assay, DENV4 NS5; details: read-out: ΔTM
DENV-2 = assay: CPE (MTT) assay, DENV-2 in human PBMCs and BHK-21 cells; type: cell-based, Dengue virus
Dengue-2 (DENV-2) = assay: Virus yield reduction (VYR) assay, DENV-2; type: cell-based
DENV-1 = assay: Antiviral assay with FC read-out, DENV-1; type: cell-based; details: Dengue virus, DENV1; DENV-1 WP74, Huh-7, FC read-out
Rhinovirus = assay: Antiviral specificity panel, Rhinovirus; type: cell-based; details: Enterovirus; RNA virus, H1-HeLa
[4] = Cytotoxicity in MDCK cells; type: cell-based; details: dog, Table 2, MDCK
Procedure: To assess the antiviral specificity of Compound 1 (AT-281), serial dilutions were incubated with various host cell lines infected with a panel of DNA and RNA viruses other than flaviviruses. The activity of Compound 1 (AT-281) was measured in infected cells using the neutral red assay to determine the effective concentration required to inhibit viral replication 50% (EC50) (described in Example 3) and the threshold concentration required to obtain a perceptible effect on 50% of the cells incubated without virus (CC50). Compound 1 (AT-281) had no activity against the DNA viruses tested and was only weakly or not active against several RNA viruses (Table 2).

Dengue serotype 3 = assay: In vitro antiviral potency, summary over strains, Dengue serotype 3; type: cell-based; details: Dengue virus
Human PBMC = details: Table 1A, human PBMC without virus; highest concentration tested
DENV-4 = assay: microbe, parasite or virus in culture; details: Dengue virus, DENV4, Huh-7

T1 sequence (P09866 2488-3387): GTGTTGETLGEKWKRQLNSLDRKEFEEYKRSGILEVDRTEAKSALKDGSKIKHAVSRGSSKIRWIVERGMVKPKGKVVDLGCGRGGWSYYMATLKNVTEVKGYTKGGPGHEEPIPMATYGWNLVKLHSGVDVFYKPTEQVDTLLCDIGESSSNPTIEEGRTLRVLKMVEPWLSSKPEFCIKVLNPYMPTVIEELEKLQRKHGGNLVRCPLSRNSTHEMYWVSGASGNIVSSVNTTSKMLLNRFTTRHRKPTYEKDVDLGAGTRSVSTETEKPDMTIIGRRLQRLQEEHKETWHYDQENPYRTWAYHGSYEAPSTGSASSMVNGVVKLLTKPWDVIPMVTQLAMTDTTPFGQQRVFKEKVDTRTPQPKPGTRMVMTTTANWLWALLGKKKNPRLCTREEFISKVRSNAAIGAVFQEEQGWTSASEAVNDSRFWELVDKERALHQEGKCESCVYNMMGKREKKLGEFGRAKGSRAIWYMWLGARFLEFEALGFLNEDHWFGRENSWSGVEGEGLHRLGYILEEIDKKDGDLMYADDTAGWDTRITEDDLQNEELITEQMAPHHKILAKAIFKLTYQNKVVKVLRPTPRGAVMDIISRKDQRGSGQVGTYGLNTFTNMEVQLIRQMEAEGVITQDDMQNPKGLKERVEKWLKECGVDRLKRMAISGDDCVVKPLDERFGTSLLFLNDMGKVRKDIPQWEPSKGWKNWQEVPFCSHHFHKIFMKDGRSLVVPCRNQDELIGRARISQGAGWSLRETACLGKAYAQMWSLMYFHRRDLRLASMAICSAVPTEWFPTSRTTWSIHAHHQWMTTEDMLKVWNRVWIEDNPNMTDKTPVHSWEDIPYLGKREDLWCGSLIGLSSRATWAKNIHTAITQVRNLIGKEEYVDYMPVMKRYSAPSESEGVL
Chain of human cellular DNA-dependent DNA polymerase γ (P54098 whole entry): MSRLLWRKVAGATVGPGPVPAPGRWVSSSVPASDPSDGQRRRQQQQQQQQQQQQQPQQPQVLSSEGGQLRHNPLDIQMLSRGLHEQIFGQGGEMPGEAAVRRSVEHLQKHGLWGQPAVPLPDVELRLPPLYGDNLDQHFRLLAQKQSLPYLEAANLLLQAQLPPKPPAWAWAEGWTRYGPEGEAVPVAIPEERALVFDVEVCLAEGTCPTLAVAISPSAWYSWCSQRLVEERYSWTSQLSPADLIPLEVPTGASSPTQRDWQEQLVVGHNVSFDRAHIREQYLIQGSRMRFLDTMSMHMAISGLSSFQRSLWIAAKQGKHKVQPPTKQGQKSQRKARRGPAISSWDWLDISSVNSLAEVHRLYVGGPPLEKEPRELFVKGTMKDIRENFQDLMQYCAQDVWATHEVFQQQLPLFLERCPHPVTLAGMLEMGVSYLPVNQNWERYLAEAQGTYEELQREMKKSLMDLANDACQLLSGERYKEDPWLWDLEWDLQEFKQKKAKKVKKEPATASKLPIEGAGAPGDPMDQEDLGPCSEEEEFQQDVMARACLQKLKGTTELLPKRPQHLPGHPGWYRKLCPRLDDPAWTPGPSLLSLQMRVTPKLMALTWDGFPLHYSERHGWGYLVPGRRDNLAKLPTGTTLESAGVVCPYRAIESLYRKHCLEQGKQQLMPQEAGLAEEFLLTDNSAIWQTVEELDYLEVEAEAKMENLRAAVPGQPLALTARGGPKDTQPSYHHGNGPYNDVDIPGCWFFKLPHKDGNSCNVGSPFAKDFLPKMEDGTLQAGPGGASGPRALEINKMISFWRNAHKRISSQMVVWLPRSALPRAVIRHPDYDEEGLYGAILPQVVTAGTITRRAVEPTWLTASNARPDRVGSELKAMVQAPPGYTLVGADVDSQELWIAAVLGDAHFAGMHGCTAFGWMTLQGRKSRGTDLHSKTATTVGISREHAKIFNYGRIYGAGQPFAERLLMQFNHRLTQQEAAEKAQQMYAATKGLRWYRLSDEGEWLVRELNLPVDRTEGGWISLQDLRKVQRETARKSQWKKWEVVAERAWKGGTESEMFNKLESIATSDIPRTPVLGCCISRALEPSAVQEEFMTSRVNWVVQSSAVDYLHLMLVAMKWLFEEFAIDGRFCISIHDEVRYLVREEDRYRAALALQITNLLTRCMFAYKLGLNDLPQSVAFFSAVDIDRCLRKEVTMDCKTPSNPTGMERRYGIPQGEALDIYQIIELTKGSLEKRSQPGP
Chain of DENV3 NS5 (Q6YMS4 2491-3390): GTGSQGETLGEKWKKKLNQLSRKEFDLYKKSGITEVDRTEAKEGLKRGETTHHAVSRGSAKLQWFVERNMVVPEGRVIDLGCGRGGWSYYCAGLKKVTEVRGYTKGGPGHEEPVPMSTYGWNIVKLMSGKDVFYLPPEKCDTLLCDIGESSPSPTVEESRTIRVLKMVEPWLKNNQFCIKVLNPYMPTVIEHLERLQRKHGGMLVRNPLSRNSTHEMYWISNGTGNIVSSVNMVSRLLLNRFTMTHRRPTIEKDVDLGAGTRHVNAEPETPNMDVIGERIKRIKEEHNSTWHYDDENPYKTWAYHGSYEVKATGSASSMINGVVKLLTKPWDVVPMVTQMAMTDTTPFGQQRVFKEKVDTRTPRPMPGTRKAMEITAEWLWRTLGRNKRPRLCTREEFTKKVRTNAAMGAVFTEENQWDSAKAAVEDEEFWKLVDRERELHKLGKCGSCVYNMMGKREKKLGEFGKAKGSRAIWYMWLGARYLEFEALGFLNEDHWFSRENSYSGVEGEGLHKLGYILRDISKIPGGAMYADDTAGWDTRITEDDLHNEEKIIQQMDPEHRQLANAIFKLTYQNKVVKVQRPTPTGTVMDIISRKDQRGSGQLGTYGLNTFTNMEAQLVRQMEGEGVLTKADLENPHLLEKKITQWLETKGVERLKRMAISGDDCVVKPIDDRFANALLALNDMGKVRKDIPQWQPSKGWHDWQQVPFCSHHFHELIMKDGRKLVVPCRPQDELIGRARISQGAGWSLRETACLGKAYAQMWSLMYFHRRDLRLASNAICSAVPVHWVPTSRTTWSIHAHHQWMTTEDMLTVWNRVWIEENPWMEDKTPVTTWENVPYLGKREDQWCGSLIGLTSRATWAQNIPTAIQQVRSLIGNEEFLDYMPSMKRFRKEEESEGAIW
Chain of DENV2 NS5MTase protein (P14340 2492-2787 limits assumed): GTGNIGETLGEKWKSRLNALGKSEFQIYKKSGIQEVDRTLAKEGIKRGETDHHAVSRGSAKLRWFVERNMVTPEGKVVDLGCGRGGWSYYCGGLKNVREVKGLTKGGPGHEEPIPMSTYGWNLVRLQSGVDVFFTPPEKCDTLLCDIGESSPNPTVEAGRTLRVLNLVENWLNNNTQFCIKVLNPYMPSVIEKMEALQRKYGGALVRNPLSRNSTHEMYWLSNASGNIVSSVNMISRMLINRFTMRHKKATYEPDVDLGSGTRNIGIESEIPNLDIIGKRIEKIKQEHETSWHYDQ

C[C@@]1(F)[C@H](O)[C@@H](COP(=O)(O)OP(=O)(O)OP(=O)(O)O)O[C@H]1n1cnc2c(=O)[nH]c(N)nc21 [Compound 5]
Preference (discrimination) native nucleotide > analogue (DENV3 NS5): 11.6 ± 1.3 | Preference (discrimination) native nucleotide > analogue (DENV4 NS5 [1]): 11.2 ± 0.7 | IC50 (DENV2 NS5MTase protein): 29.6 µM | IC50 [2]: > 100 µM | ΔTm at 100 µM (DENV4 NS5 [3]): 4.8 ± 0.1 °C

CNc1nc(N)nc2c1ncn2[C@@H]1O[C@H](CO[P@](=O)(N[C@@H](C)C(=O)OC(C)C)Oc2ccccc2)[C@@H](O)[C@@]1(C)F [Compound 1, isopropyl ((R)-(((2R,3R,4R,5R)-5-(2-amino-6-(methylamino)-9H-purin-9-yl)-4-fluoro-3-hydroxy-4-methyltetrahydrofuran-2-yl)methoxy)(phenoxy)phosphoryl)-L-alaninate]
EC50 (DENV-2; DENV-2 clinical isolate, BHK-21, CPE): 1.05 µM | EC50 (DENV-2; Dengue virus, DENV2, BHK-21, DENV-2 NGC, BHK-21, CPE read-out): 3.82 µM | EC50 (Dengue-2 (DENV-2); DENV2, BHK-21): 6.5 µM | EC50 (Dengue-2 (DENV-2); DENV2, Huh-7): 0.64 µM | EC90 (Dengue-2 (DENV-2); DENV2, read-out: EC90 against Dengue serotype 2): ~0.2 µg/mL (≈ 0.344 µM) | EC50 (DENV-1): 0.15 µM | EC50 (Rhinovirus): > 100 µM | CC50 [4]: > 100 µM | EC50 (Dengue serotype 3): < 1.5 µM | CC50 (Human PBMC): > 85 µM | SI (flaviviruses; DENV-2 NGC Huh-7, DENV2 clinical isolate PBMC and BHK-21, DENV-3 H87 Huh-7, in each case): > 210 | CC50 (flaviviruses; read-out: CC50 (concentration required to kill 50% of cells exposed to drug only), exceeded the highest concentration tested): 85 to 170 µM | EC50 (DENV-4): 0.57 µM
